Laboratory results: patent US20240041042A1, “1-(PYRIDYL)-5-AZINYLPYRAZOLE DERIVATIVES, AND THEIR USE FOR CONTROL OF UNDESIRED PLANT GROWTH” (Bayer Aktiengesellschaft, priority 2020, published 2024)
Read-outs that look alike come from different tables or passages of the source.

Tests used:
Assay type in all cases: in vivo
Avena fatua (AVEFA) [1] = experiment: Post-emergence herbicidal action against AVEFA; details: visual rating about 3 weeks after treatment
Summary of the method: (§1)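 Doses of 320 g/ha or lower, suffixes a, b and c marking different dosages, were applied post-emergence at the one-leaf stage in 600 l/ha water with 0.5% additive. Damage was assessed visually after about 3 weeks in the greenhouse.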

[2] = tested on: Pharbitis purpurea (PHBPU); experiment: Pre-emergence herbicidal action against PHBPU; details: dosage 320 g/ha
Summary of the method: (§2)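 Pre-emergence soil-surface spray, WP/EC formulation, 0.5% additive, 600 l/ha water, rates of 320 g/ha or lower. Greenhouse, ~3 wk. Visual score, % of untreated control (100% = plants dead, 0% = like control).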

[3] = tested on: Abutilon theophrasti (ABUTH); experiment: Post-emergence herbicidal action against ABUTH; details: 320 g/ha, visual rating about 3 weeks after treatment vs untreated controls (100% = plants have died, 0% = like control plants)
Summary of the method: as §1

[4] = tested on: Echinochloa crus-galli (ECHCG); experiment: Post-emergence herbicidal action against ECHCG
Summary of the method: as §1

[5] = tested on: Polygonum convolvulus (POLCO); experiment: Pre-emergence herbicidal action against POLCO
Summary of the method: as §2

[6] = tested on: Verconica persica (VERPE); experiment: Post-emergence herbicidal action against VERPE
Summary of the method: as §1

Avena fatua (AVEFA) [7] = experiment: Pre-emergence herbicidal action against AVEFA; details: 320 g/ha, visual scoring after about 3 weeks vs untreated controls
Summary of the method: as §2

Viola tricolor (VIOTR) [8] = experiment: Pre-emergence herbicidal action against VIOTR
Summary of the method: as §2

[9] = tested on: Verconica persica (VERPE); experiment: Pre-emergence herbicidal action against VERPE
Summary of the method: as §2

Oryza sativa (ORYSA) = details: crop plant compatibility
Summary of the method: (§3)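 Visual rating (% effect vs. untreated plants; 100% = plant death) made about 3 weeks after treatment. Plants had been sprayed at one-leaf stage, 2–3 weeks post-sowing, with aqueous WP/EC preparations containing 0.5% additive, 600 l/ha water volume; a, b, c mark dose levels.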

[10] = tested on: Triticum aestivum (TRZAS); details: crop plant compatibility, effect vs untreated controls
Summary of the method: as §3

Zea mays (ZEAMX) = details: for Post-emergence action against ZEAMX in %: crop plant compatibility, effect vs untreated controls; for Post-emergence action against ZEAMX in % (crop plant compatibility): 20 g/ha, effect in comparison to untreated controls
Summary of the method: as §3

Setaria viridis (SETVI) [11] = experiment: Pre-emergence herbicidal action against SETVI
Summary of the method: as §2

[12] = tested on: Echinochloa crus-galli (ECHCG); experiment: Pre-emergence herbicidal action against ECHCG
Summary of the method: as §2

[13] = tested on: Polygonum convolvulus (POLCO); experiment: Post-emergence herbicidal action against POLCO
Summary of the method: as §1

[14] = tested on: Alopecurus myosuroides (ALOMY); experiment: Pre-emergence herbicidal action against ALOMY; details: scored visually after about 3 weeks, 100% = plants have died
Summary of the method: as §2

[15] = tested on: Amaranthus retroflexus (AMARE); experiment: Pre-emergence herbicidal action against AMARE; details: visual scoring after about 3 weeks vs untreated controls
Summary of the method: as §2

Viola tricolor (VIOTR) [16] = experiment: Post-emergence herbicidal action against VIOTR
Summary of the method: as §1

[17] = tested on: Alopecurus myosuroides (ALOMY); experiment: Post-emergence herbicidal action against ALOMY; details: visual rating about 3 weeks after treatment vs untreated controls (100% = plants have died, 0% = like control plants)
Summary of the method: as §1

[18] = tested on: Amaranthus retroflexus (AMARE); experiment: Post-emergence herbicidal action against AMARE
Summary of the method: as §1

Lolium rigidum (LOLRI) [19] = experiment: Post-emergence herbicidal action against LOLRI; details: dosage 320 g/ha
Summary of the method: as §1

Lolium rigidum (LOLRI) [20] = experiment: Pre-emergence herbicidal action against LOLRI; details: dosage 320 g/ha
Summary of the method: as §2

[21] = tested on: Matricaria inodora (MATIN); experiment: Pre-emergence herbicidal action against MATIN
Summary of the method: as §2

Setaria viridis (SETVI) [22] = experiment: Post-emergence herbicidal action against SETVI
Summary of the method: as §1

[23] = tested on: Matricaria inodora (MATIN); experiment: Post-emergence herbicidal action against MATIN; details: dosage 80 g/ha
Summary of the method: as §1

[24] = tested on: Pharbitis purpurea (PHBPU); experiment: Post-emergence herbicidal action against PHBPU; details: dosage 80 g/ha
Summary of the method: as §1

[25] = tested on: Digitaria sanguinalis (DIGSA); experiment: Post-emergence herbicidal action against DIGSA; details: 320 g/ha, visual rating about 3 weeks after treatment
Summary of the method: as §1

[26] = 80 g/ha, effect in comparison to untreated controls
[27] = 320 g/ha, effect in comparison to untreated controls
[28] = 20 g/ha, effect vs untreated controls

SMILES	Pre-emergence action against PHBPU in % [2]	Post-emergence action against ABUTH in % [3]	Post-emergence action against ECHCG in % ([4]; dosage 80 g/ha)	Post-emergence action against ECHCG in % ([4]; dosage 320 g/ha)	Pre-emergence action against POLCO in % ([5]; dosage 320 g/ha)	Post-emergence action against VERPE in % ([6]; 320 g/ha, VERPE)	Pre-emergence action against AVEFA in % (Avena fatua (AVEFA) [7])	Pre-emergence action against VIOTR in % (Viola tricolor (VIOTR) [8]; 320 g/ha, Viola tricolor)	Pre-emergence action against VIOTR in % (Viola tricolor (VIOTR) [8]; dosage 80 g/ha)	Pre-emergence action against VERPE in % ([9]; dosage 80 g/ha)	Pre-emergence action against VERPE in % ([9]; dosage 320 g/ha)	Post-emergence action against ORYSA in % (Oryza sativa (ORYSA); [26])	Post-emergence action against ORYSA in % (Oryza sativa (ORYSA); [27])	Post-emergence action against TRZAS in % ([10]; 80 g/ha)	Post-emergence action against ZEAMX in % (Zea mays (ZEAMX); 80 g/ha)	Pre-emergence action against SETVI in % (Setaria viridis (SETVI) [11]; dosage 320 g/ha)	Pre-emergence action against ECHCG in % ([12]; dosage 320 g/ha)	Post-emergence action against ORYSA in % (Oryza sativa (ORYSA); [28])	Post-emergence action against TRZAS in % ([10]; 20 g/ha)	Post-emergence action against ZEAMX in % (crop plant compatibility) (Zea mays (ZEAMX))	also measured
O=C(O)COc1nn(-c2ncccc2C(F)(F)F)c(-c2cncc(F)c2)c1I [Example I-186]	90%	80%	80%	90%	80%	80%	80%	90%	80%	90%	90%	10%	20%	10%	20%	80%	80%	–	–	–	Post-emergence action against AVEFA in % (Avena fatua (AVEFA) [1]; 320 g/ha): 80%; Post-emergence action against POLCO in % ([13]; dosage 320 g/ha): 80%; Pre-emergence action against ALOMY ([14]; 320 g/ha): 90%; Pre-emergence action against AMARE in % ([15]; 320 g/ha): 90%
CCOC(=O)COc1nn(-c2ncccc2F)c(-c2ccnc(F)c2)c1I [Example I-137]	–	80%	–	80%	–	80%	–	–	–	–	–	10%	20%	20%	0%	–	–	0%	20%	0%	Post-emergence action against VIOTR in % (Viola tricolor (VIOTR) [16]; 80 g/ha): 80%; Post-emergence action against VIOTR in % (Viola tricolor (VIOTR) [16]; 320 g/ha): 80%; Post-emergence action against ALOMY in % ([17]; 320 g/ha): 80%; Post-emergence action against AMARE in % ([18]; 320 g/ha, visual rating about 3 weeks after treatment): 80%; Post-emergence action against LOLRI in % (Lolium rigidum (LOLRI) [19]): 90%; Post-emergence action against ZEAMX in % (Zea mays (ZEAMX); 320 g/ha): 20%; Post-emergence action against POLCO in % ([13]; dosage 80 g/ha): 80%; Post-emergence action against POLCO in % ([13]; dosage 320 g/ha): 80%
CCOC(=O)COc1nn(-c2ncccc2F)c(-c2ccc(F)nc2)c1Br [Example I-51]	90%	–	90%	–	90%	–	90%	100%	100%	100%	100%	–	–	–	–	100%	90%	20%	20%	20%	Post-emergence action against VIOTR in % (Viola tricolor (VIOTR) [16]; 80 g/ha): 80%; Pre-emergence action against LOLRI in % (Lolium rigidum (LOLRI) [20]): 90%; Pre-emergence action against MATIN in % ([21]; dosage 80 g/ha): 90%; Pre-emergence action against MATIN in % ([21]; dosage 320 g/ha): 90%; Post-emergence action against ALOMY in % ([17]; 80 g/ha): 90%; Post-emergence action against AVEFA in % (Avena fatua (AVEFA) [1]; 80 g/ha): 90%; Post-emergence action against AMARE in % ([18]; 80 g/ha, visual rating about 3 weeks after treatment vs untreated controls (100% = plants have died, 0% = like control plants)): 90%; Post-emergence action against SETVI in % (Setaria viridis (SETVI) [22]; dosage 80 g/ha): 90%; Pre-emergence action against POLCO in % ([5]; dosage 80 g/ha): 80%; Post-emergence action against VERPE in % ([6]; dosage 80 g/ha): 80%; Post-emergence action against MATIN in % [23]: 80%; Pre-emergence action against SETVI in % (Setaria viridis (SETVI) [11]; dosage 80 g/ha): 90%; Pre-emergence action against ECHCG in % ([12]; dosage 80 g/ha): 80%; Post-emergence action against PHBPU in % [24]: 90%; Pre-emergence action against ALOMY ([14]; 80 g/ha): 90%; Pre-emergence action against ALOMY ([14]; 320 g/ha): 100%; Pre-emergence action against AMARE in % ([15]; 80 g/ha): 100%; Pre-emergence action against AMARE in % ([15]; 320 g/ha): 100%
COC(=O)C(C)NC(=O)C(C)Oc1nn(-c2ccccn2)c(-c2ccc(F)nc2)c1Br (centres unmarked) [Example I-286]	–	–	–	80%	–	–	–	–	–	–	–	20%	20%	–	20%	–	–	10%	20%	10%	Post-emergence action against VIOTR in % (Viola tricolor (VIOTR) [16]; 320 g/ha): 80%; Post-emergence action against SETVI in % (Setaria viridis (SETVI) [22]; dosage 320 g/ha): 80%; Post-emergence action against DIGSA in % [25]: 90%
